This experiment addresses JAK1 (Homo sapiens (Human), UniProt P23458). Put plainly: Jak biochemical HTRF assay, JAK1. The note with it: HTRF biochemical assay, recombinant GST-tagged catalytic domain; read-out: JAK1 IC50. The protocol:
Jak Biochemical HTRF Assay Protocol
The ability of compounds to inhibit the activity of JAK1, JAK2, JAK3, and Tyk2 was measured using a recombinant purified GST-tagged catalytic domain for each enzyme (Invitrogen JAK1 #M4290, JAK2 #M4290, JAK3 #M4290, Tyk2 #M4290) in an HTRF format biochemical assay. […] The basic assay protocol is as follows: First, 250 nL of diluted compounds in DMSO were dispensed into the wells of a dry 384-well Black plate (Greiner #781076) using a Labcyte Echo 555 acoustic dispenser. Subsequent reagent additions employed an Agilent Bravo. […] After equilibration, 2 μL of 10×ATP in 1× assay buffer was added to initiate the kinase reaction and the plates were shaken and then incubated at room temperature for 120 minutes. […] Plates were shaken and centrifuged and then incubated 60 minutes at room temperature and then read on a Perkin Elmer Envision (λex=337 nm, λem=665 and 615 nm, TRF delay time=20 μs). HTRF signal=10,000*665 nm reading/615 nm reading. After normalization to untreated controls, the percent inhibition of the HTRF signal at each compound concentration was calculated. The plot of percent inhibition versus the log of compound concentration was fit with a 4-parameter dose response equation to calculate IC50 values.
Final Reaction Conditions were:
Examples of the instant invention were evaluated in JAK1 and JAK2 in vitro binding assays.
(In general: In TR-FRET formats the signal depends on donor and acceptor labels being close together.)

Chain of JAK1 (P23458 875-1153): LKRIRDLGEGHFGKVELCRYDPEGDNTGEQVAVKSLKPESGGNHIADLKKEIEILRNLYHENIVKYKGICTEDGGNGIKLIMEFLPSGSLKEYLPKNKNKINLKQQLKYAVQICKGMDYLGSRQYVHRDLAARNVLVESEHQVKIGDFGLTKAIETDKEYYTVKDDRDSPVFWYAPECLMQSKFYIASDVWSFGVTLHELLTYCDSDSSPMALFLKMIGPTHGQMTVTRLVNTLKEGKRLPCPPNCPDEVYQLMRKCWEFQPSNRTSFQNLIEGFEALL

For orientation: IC50 means the concentration needed to halve the response being measured. In the case of `CC(C)(C)[S@@+]([O-])N[C@@H](c1ccc(Nc2nn([C@H]3CCCC[C@@H]3C#N)c3cc[nH]c(=O)c23)cc1)C(F)(F)F` (stereo in doubt) [Example 3-55], the IC50 was 520 pM.

As for `N#C[C@H]1CCCC[C@@H]1n1nc(Nc2cccc(CNC(=O)c3cnco3)c2)c2c(=O)[nH]ccc21` [Example 3-12, N-[3-({1-[(1S,2S)-2-cyanocyclohexyl]-4-oxo-4,5-dihydro-1H-pyrazolo[4,3-c]pyridin-3-yl}amino)benzyl]-1,3-oxazole-5-carboxamide], the half-inhibitory concentration (IC50) was determined as 310 pM. Under `N#C[C@@H]1CCCC[C@H]1n1nc(Nc2cccc(CNC(=O)c3cnco3)c2)c2c(=O)[nH]ccc21` [Example 3-13, N-[3-({1-[(1R,2R)-2-cyanocyclohexyl]-4-oxo-4,5-dihydro-1H-pyrazolo[4,3-c]pyridin-3-yl}amino)benzyl]-1,3-oxazole-5-carboxamide] stands 14000 pM. As to `N#C[C@H]1CCCC[C@@H]1n1nc(Nc2ccc3c(c2)C(O)(CO)CCS3(=O)=O)c2c(=O)[nH]ccc21` (stereo partly drawn) [Example 3-48, (1S,2S)-2-(3-{[4-hydroxy-4-(hydroxymethyl)-1,1-dioxido-3,4-dihydro-2H-thiochromen-6-yl]amino}-4-oxo-4,5-dihydro-1H-pyrazolo[4,3-c]pyridin-1-yl)cyclohexanecarbonitrile], the concentration for half-maximal inhibition (IC50) was determined as 18000 pM. The result for `CC(C)(C)[S@+]([O-])N[C@H](c1ccc(Nc2nn([C@H]3CCCC[C@@H]3C#N)c3cc[nH]c(=O)c23)cc1)C(F)(F)F` [Example 3-56, N-{(1R)-1-[4-({1-[(1S,2S)-2-cyanocyclohexyl]-4-oxo-4,5-dihydro-1H-pyrazolo[4,3-c]pyridin-3-yl}amino)phenyl]-2,2,2-trifluoroethyl}-2-methylpropane-2-sulfinamide] reads 310 pM; that for `N#C[C@H]1CCCC[C@@H]1n1nc(Nc2ccc3c(c2)CN(CC2CC2)C3)c2c(=O)[nH]ccc21` [Example 3-77, (1S,2S)-2-(3-{[2-(cyclopropylmethyl)-2,3-dihydro-1H-isoindol-5-yl]amino}-4-oxo-4,5-dihydro-1H-pyrazolo[4,3-c]pyridin-1-yl)cyclohexanecarbonitrile], 520 pM; that for `CC(C)(CCO)N1Cc2cc(Nc3nn([C@H]4CCCC[C@@H]4C#N)c4cc[nH]c(=O)c34)ccc2S1(=O)=O` [Example 3-81, (1S,2S)-2-(3-{[2-(3-hydroxy-1,1-dimethylpropyl)-1,1-dioxido-2,3-dihydro-1,2-benzisothiazol-5-yl]amino}-4-oxo-4,5-dihydro-1H-pyrazolo[4,3-c]pyridin-1-yl)cyclohexanecarbonitrile], 55 pM.

In the case of `CC(C)(CO)CN1Cc2cc(Nc3nn([C@H]4CCCC[C@@H]4C#N)c4cc[nH]c(=O)c34)ccc2S1(=O)=O` [Example 3-82, (1S,2S)-2-(3-{[2-(3-hydroxy-2,2-dimethylpropyl)-1,1-dioxido-2,3-dihydro-1,2-benzisothiazol-5-yl]amino}-4-oxo-4,5-dihydro-1H-pyrazolo[4,3-c]pyridin-1-yl)cyclohexanecarbonitrile], the IC50 was found to be 110 pM. Under `N#C[C@@H]1C[C@@H](O)CC[C@H]1n1nc(Nc2ccc(C(F)(F)F)cc2)c2c(=O)[nH]ccc21` [Example 3-89, (1R,2R,5S)-5-hydroxy-2-(4-oxo-3-((4-(trifluoromethyl)phenyl)amino)-4,5-dihydro-1H-pyrazolo[4,3-c]pyridin-1-yl)cyclohexanecarbonitrile] stands 9800 pM. For `CS(=O)(=O)c1ccc(Nc2nn([C@H]3CCC[C@@H]3C#N)c3cc[nH]c(=O)c23)cc1` [Example 3-94, (1S,2S)-2-(3-{[4-(methylsulfonyl)phenyl]amino}-4-oxo-4,5-dihydro-1H-pyrazolo[4,3-c]pyridin-1-yl)cyclopentanecarbonitrile], the IC50 is 120 pM. On to `N#C[C@H]1CCC[C@@H]1n1nc(Nc2ccc(S(N)(=O)=O)cc2)c2c(=O)[nH]ccc21` [Example 3-99, 4-({1-[(1S,2S)-2-cyanocyclopentyl]-4-oxo-4,5-dihydro-1H-pyrazolo[4,3-c]pyridin-3-yl}amino)benzenesulfonamide], for which the IC50 worked out at 90 pM.

The record behind these values is US9725445B2, “Cycloalkyl nitrile pyrazolo pyridones as Janus kinase inhibitors” (Merck Sharp & Dohme Corp., priority 2013, dated 2017).
